Reference: US10828315B2 (Madrigal Pharmaceuticals, Inc., priority 2013, dated 2020)
“Also recorded” adds a separate entry of the source. Like-named read-outs stand apart in the source and are kept apart here.

Tests used:
[1] = Physical appearance of SDC-TRAP-0063 formulations and infusion solutions with different diluents and carbonate buffers; format: physicochemical
Method: First, a stock solution of SDC-TRAP-0063 was prepared in DMSO at 22 mg/mL, then the required amount of tween 80 was added and mixed well.
The above formulation containing SDC-TRAP-0063 was diluted using either D5W, D5W (pH 10.5, adjusted with 4.55 mM NaOH) or carbonate buffer, pH 10) (final drug concentration.: 1 mg/mL SDC-TRAP-0063, 1.8% v/v Tween 80, 5% v/v DMSO). The physical observations on these solutions were noted before and filtration through 0.22μ PES filter and were further observed for 3 hr. Refer to the table below for summary of observations. Note: Carbonate buffer, pH 10 was prepared by mixing 0.1M sodium carbonate (27.5 mL) and 0.1M sodium bicarbonate (22.5 mL) and qs 200 mL with DIW. The total Na content of carbonate buffer was 39 mM.
A stock solution of SDC-TRAP-0063 was prepared in either DMSO or PEG-300. To prepare formulations containing DMSO and tween 80, required amount of tween 80 added to the stock of DMSO (containing SDC-TRAP-0063). The formulations were then was diluted with carbonate buffer, pH 10 (composition: add and mix 0.1M sodium carbonate (27.5 mL) and 0.1M sodium bicarbonate (22.5 mL) and qs 200 mL with DIW). The samples (prepared in glass vial) were mixed well and observed for physical appearance while stirring on a magnetic stirring plate at ambient. (Note-appropriate amounts of SDC-TRAP-0063, tween 80, DMSO and PEG-300, as applicable were used to prepare the solutions at the desired concentrations and drug concentrations at 1 mg/mL through 5 mg/mL as shown).
Carbonate buffers of different pH (pH 9-10) and ionic strengths (with higher (>2) Na contents that SDC-TRAP-0063 on molar basis) were prepared and used for diluting the DMSO/tween 80 formulation loaded with SDC-TRAP-0063 (as described in earlier section 3). The final concentrations of DMSO and tween 80 in the diluted carbonate buffer were 5% v/v and 1.8% v/v respectively. The drug concentration was kept constant (5 mg/mL) for all diluted samples.

[2] = tested on: HCT-116 human colorectal xenografts; assay: Mouse xenograft efficacy in HCT-116 colon cancer model; details: IV
Method: The cells were maintained in vitro as a monolayer culture in McCoy's 5a Medium. Fetal bovine serum was then be added to the medium. The final concentration of fetal bovine serum was 10%. Cells were cultured at 37° C. and 5% CO2. The tumor cells were routinely sub-cultured twice weekly by trypsin-EDTA treatment. Cells in an exponential growth phase were harvested and counted for tumor inoculation.
100 18-22 g, 5-7 week old, female BALB/cA nude mice were inoculated with the HCT 116 cells (2.0×10^6, 1:1 with Matrigel) subcutaneously on the back of each animal (0.1 mL/mouse). When the average tumor volume reached about 150-250 mm^3, 60 of the inoculated mice was selected based on tumor growth and randomly grouped into 6 treatment groups (10 mice per group) according to the following table.
The administrations were made with 27-gauge IV needle.
During the treatment period, the implanted tumors were measured by caliper twice per week. The tumors were measured for the maximum width (X) and length (Y) and the tumor volumes (V) were calculated using the formula: V=(X^2Y)/2. The differences in the tumor volume between the control and treatment groups were analyzed for significance using the unpaired two-tailed Student's t-test. P<0.05 was considered to be statistically significant. The animal body weights were also weighed and recorded twice per week.

[3] = mouse

Compound: CCc1c2c(nc3ccc(OC(=O)N4CCC(CCn5ccc6cc(-n7c(O)nnc7-c7cc(C(C)C)c(O)cc7O)ccc65)CC4)cc13)-c1cc3c(c(=O)n1C2)COC(=O)[C@]3(O)CC [SDC-TRAP-0063, 4,11-diethyl-4-hydroxy-3,14-dioxo-3,4,12,14-tetrahydro-1H-pyrano[3′,4′:6,7]indolizino[1,2-b]quinolin-9-yl 4-(2-(5-(3-(2,4-dihydroxy-5-isopropylphenyl)-5-hydroxy-4H-1,2,4-triazol-4-yl)-1H-indol-1-yl)ethyl)piperidine-1-carboxylate]
- Observations (physical appearance) ([1]; 5% v/v DMSO, carbonate buffer pH 10 (39 mM Na), 2 mg/mL, 1 h): Cloudy
- Observations (physical appearance) ([1]; 5% v/v DMSO, carbonate buffer pH 10 (39 mM Na), 2 mg/mL, 6 h): Cloudy
- Observations (physical appearance) ([1]; 5% v/v DMSO, carbonate buffer pH 10 (39 mM Na), 2 mg/mL, Initial): Cloudy
- Observations (physical appearance) ([1]; 5% v/v DMSO, carbonate buffer pH 10 (39 mM Na), 2 mg/mL, Overnight): Opaque (less cloudy than at 6 h)
- Observations (physical appearance) ([1]; 5% v/v DMSO, carbonate buffer pH 10 (39 mM Na), 3 mg/mL, 30 min): Cloudy
- Observations (physical appearance) ([1]; 5% v/v DMSO, carbonate buffer pH 10 (39 mM Na), 3 mg/mL, 1 h): Cloudy
- Observations (physical appearance) ([1]; 5% v/v DMSO, carbonate buffer pH 10 (39 mM Na), 3 mg/mL, 6 h): Cloudy
- Observations (physical appearance) ([1]; 5% v/v DMSO, carbonate buffer pH 10 (39 mM Na), 3 mg/mL, Initial): Cloudy
- Observations (physical appearance) ([1]; 5% v/v DMSO, carbonate buffer pH 10 (39 mM Na), 3 mg/mL, Overnight): Cloudy
- Observations (physical appearance) ([1]; 5% v/v DMSO, carbonate buffer pH 10 (39 mM Na), 4 mg/mL, 30 min): Cloudy
- Observations (physical appearance) ([1]; 5% v/v DMSO, carbonate buffer pH 10 (39 mM Na), 4 mg/mL, 1 h): Cloudy
- Observations (physical appearance) ([1]; 5% v/v DMSO, carbonate buffer pH 10 (39 mM Na), 4 mg/mL, 6 h): Cloudy
- Observations (physical appearance) ([1]; 5% v/v DMSO, carbonate buffer pH 10 (39 mM Na), 4 mg/mL, Initial): Cloudy
- Observations (physical appearance) ([1]; 5% v/v DMSO, carbonate buffer pH 10 (39 mM Na), 4 mg/mL, Overnight): Cloudy
- Observations (physical appearance) ([1]; 5% v/v DMSO, carbonate buffer pH 10 (39 mM Na), 5 mg/mL, 30 min): Cloudy
- Observations (physical appearance) ([1]; 5% v/v DMSO, carbonate buffer pH 10 (39 mM Na), 5 mg/mL, 1 h): Cloudy
- Observations (physical appearance) ([1]; 5% v/v DMSO, carbonate buffer pH 10 (39 mM Na), 5 mg/mL, 6 h): Cloudy
- Observations (physical appearance) ([1]; 5% v/v DMSO, carbonate buffer pH 10 (39 mM Na), 5 mg/mL, Initial): Cloudy
- Observations (physical appearance) ([1]; 5% v/v DMSO, carbonate buffer pH 10 (39 mM Na), 5 mg/mL, Overnight): Cloudy
- physical appearance after dilution with carbonate buffer, pH 10 ([1]; DMSO alone 5% v/v, 2 mg/mL through 5 mg/mL): stayed cloudy for more than 24 h
- physical appearance after dilution with carbonate buffer, pH 10 ([1]; PEG-300 formulations, 1 mg/mL and 2 mg/mL): appeared clear at 30 mm and 1 hr of stirring respectively
- physical appearance after dilution with carbonate buffer, pH 10 ([1]; PEG-300 formulations, 3 mg/mL, 4 mg/mL and 5 mg/mL): took longer and were clear next day
- Observations (physical appearance) ([1]; […] v/v PEG-300, carbonate buffer pH 10 (39 mM Na), 1 mg/mL, 30 min): clear,
- Observations (physical appearance) ([1]; […] v/v PEG-300, carbonate buffer pH 10 (39 mM Na), 1 mg/mL, 1 h): clear, yellow
- Observations (physical appearance) ([1]; […] v/v PEG-300, carbonate buffer pH 10 (39 mM Na), 1 mg/mL, 2 h): clear, yellow
- Observations (physical appearance) ([1]; […] v/v PEG-300, carbonate buffer pH 10 (39 mM Na), 1 mg/mL, Initial): slightly
- Observations (physical appearance) ([1]; […] v/v PEG-300, carbonate buffer pH 10 (39 mM Na), 1 mg/mL, Overnight): clear, yellow
- Observations (physical appearance) ([1]; […] v/v PEG-300, carbonate buffer pH 10 (39 mM Na), 2 mg/mL, 30 min): Translucent
- Observations (physical appearance) ([1]; […] v/v PEG-300, carbonate buffer pH 10 (39 mM Na), 2 mg/mL, 1 h): clear, yellow
- Observations (physical appearance) ([1]; […] v/v PEG-300, carbonate buffer pH 10 (39 mM Na), 2 mg/mL, 2 h): clear, yellow
- Observations (physical appearance) ([1]; […] v/v PEG-300, carbonate buffer pH 10 (39 mM Na), 2 mg/mL, Initial): cloudy
- Observations (physical appearance) ([1]; […] v/v PEG-300, carbonate buffer pH 10 (39 mM Na), 2 mg/mL, Overnight): clear, yellow
- Observations (physical appearance) ([1]; […] v/v PEG-300, carbonate buffer pH 10 (39 mM Na), 3 mg/mL, 30 min): cloudy
- Observations (physical appearance) ([1]; […] v/v PEG-300, carbonate buffer pH 10 (39 mM Na), 3 mg/mL, 1 h): cloudy
- Observations (physical appearance) ([1]; […] v/v PEG-300, carbonate buffer pH 10 (39 mM Na), 3 mg/mL, 2 h): cloudy
- Observations (physical appearance) ([1]; […] v/v PEG-300, carbonate buffer pH 10 (39 mM Na), 3 mg/mL, Initial): cloudy
- Observations (physical appearance) ([1]; […] v/v PEG-300, carbonate buffer pH 10 (39 mM Na), 3 mg/mL, Overnight): clear, yellow
- Observations (physical appearance) ([1]; […] v/v PEG-300, carbonate buffer pH 10 (39 mM Na), 4 mg/mL, 30 min): cloudy
- Observations (physical appearance) ([1]; […] v/v PEG-300, carbonate buffer pH 10 (39 mM Na), 4 mg/mL, 1 h): cloudy
- Observations (physical appearance) ([1]; […] v/v PEG-300, carbonate buffer pH 10 (39 mM Na), 4 mg/mL, 2 h): cloudy
- Observations (physical appearance) ([1]; […] v/v PEG-300, carbonate buffer pH 10 (39 mM Na), 4 mg/mL, Initial): cloudy
- Observations (physical appearance) ([1]; […] v/v PEG-300, carbonate buffer pH 10 (39 mM Na), 4 mg/mL, Overnight): clear, yellow
- Observations (physical appearance) ([1]; […] v/v PEG-300, carbonate buffer pH 10 (39 mM Na), 5 mg/mL, 30 min): cloudy
- Observations (physical appearance) ([1]; […] v/v PEG-300, carbonate buffer pH 10 (39 mM Na), 5 mg/mL, 1 h): cloudy
- Observations (physical appearance) ([1]; […] v/v PEG-300, carbonate buffer pH 10 (39 mM Na), 5 mg/mL, 2 h): cloudy
- Observations (physical appearance) ([1]; […] v/v PEG-300, carbonate buffer pH 10 (39 mM Na), 5 mg/mL, Initial): cloudy
- Observations (physical appearance) ([1]; […] v/v PEG-300, carbonate buffer pH 10 (39 mM Na), 5 mg/mL, Overnight): clear, yellow
- achievable drug concentration in solution ([1]; carbonate buffer pH about 10, high ionic strength, […] v/v tween 80 and 5% v/v DMSO): at least 5 mg/mL
- time to clear solution ([1]; high ionic strength carbonate buffer at pH 9.5, 5 mg/mL): ≤ 3 h
- physical appearance in lower pH carbonate buffers ([1]; pH 9.3 and pH 9.5, 5% v/v DMSO + […] v/v tween 80, 5 mg/mL): remain cloudy even after stirring overnight
- tolerability ([2]; HCT-116 xenografts, Q7D×3): very well tolerated
- antitumor activity in HCT-116 xenografts (FIG. 23) ([2]; Q7D×3, then drug-free period, SDC-TRAP-0063 200 and 100 mg/kg, SDC-TRAP-0046 94 mg/kg, irinotecan 67 mg/kg, SYN-01 100 mg/kg): remarkable and durable antitumor activity compared with irinotecan or ganetespib plus irinotecan; also recorded: better activity in inhibiting the growth of HCT-116 cells in vivo than either positive control group; also recorded: significant dose-dependent activity
- Peak Area Ratio ([3]; 0 h, 10 μM): 17.9
- Peak Area Ratio ([3]; 0.5 h, 10 μM): 7.77
- Peak Area Ratio ([3]; 1 h, 10 μM): 1.98
- Peak Area Ratio ([3]; […], 10 μM): 15.6
- % Remaining (1 h) ([3]; plasma, 1 h, 10 µM): 11.1%
- % Remaining (1 h, 37° C.) ([3]; plasma, 1 h, 10 µM): 11.1%
- % Remaining (1 h) ([3]; plasma, 1 h, 10 μM): 11.1%
